Columns and labels:
[1] = Acute toxicity test (up-down method, i.v.); details: mouse, in vivo, iv, male ddy mice
Method: Male ddy mice weighing 20 g were used. A solution of the compound in physiological saline was injected intravenously. The dose lethal to 50% of mice was determined by the up-down method.

Meth-A cells = assay: Antitumor activity on a syngenic Meth-A tumor (tumor weight, i.v.); format: in vivo, male BALB/C mice; details: 7 consecutive days, day 17
Method: (1) Antitumor activity on a syngenic Meth-A tumor.
(§1) Ten male BALB/C mice in each group, weighing 25-30 g, were subcutaneously inoculated with 2×10^4 Meth-A cells. A solution of the compound in physiological saline was injected intravenously at the dose shown in Table 4 below once a day for consecutive 7 days starting with the next day of the tumor inoculation. Seventeen days after the tumor inoculation, mice were sacrificed, and tumors were weighed.
Growth inhibition was assessed, tumor weight in the treated mice divided by tumor weight in the control mice.

sarcoma 180 cells = assay: Antitumor activity on sarcoma 180 (tumor weight, i.v.); format: in vivo, male ICR mice; details: 10 consecutive days, day 17
Method: (2) antitumor activity on sarcoma 180
as §1, with “ICR” for “BALB/C”, “30-35” for “25-30”, “5×10^5 sarcoma 180” for “2×10^4 Meth-A”, “5” for “4”, “for 10” for “for”, “consecutive” for “consecutive 7”

[2] = system: transplantable fibrosarcoma induced by 3-methylcholanthrene; assay: Antitumor activity on a 3-methylcholanthrene-induced transplantable tumor (tumor weight, i.v.); format: in vivo, male C57BL/6 mice; details: every other day 5 times, day 21
Method: (3) Antitumor activity on a 3-methylcholanthrene-induced transplantable tumor.
Ten male C57BL/6 mice in each group weighing 20-25 g were subcutaneously inoculated with 5×10^4 or 1×10^5 cells of transplantable fibrosarcoma, which was induced in C57BL/6 strain by 3-methylcholanthrene and maintained syngenetically in ascites form. A solution of the compound in physiological saline was injected intravenously at the dose shown in Table 6 below every other day 5 times, starting with the next day of the tumor inoculation. Twenty-one days after the tumor inoculation, mice were sacrificed and tumors were weighed.

[3] = system: spleen hemolytic plaque forming cells; assay: Effect on humoral response (hemolytic plaque forming cells, sheep red blood cells, i.p.); format: in vivo, male BALB/C mice; details: for Increase (hemolytic plaque forming cells vs saline control) / Cell count/spleen (hemolytic plaque forming cells): day 0 to 4; for Cell count/spleen (hemolytic plaque forming cells): counted day 5
Method: (4) Effect on humoral response
Ten male BALB/C mice in each group, weighing 25-30 g, were intravenously injected with 1×10^7 sheep red blood cells on day 0. A solution of the compound in physiological saline was injected intraperitoneally at the dose shown in Table 7 below from day 0 to day 4.
On day 5, spleen hemolytic plaque forming cells were counted by the technique of Jerne et al (Science, 140, 405, 1963) modified by Cunningham et al (Immunology, 14, 599, 1968).

[4] = system: delayed hypersensitivity response; assay: Effect on a cell-mediated response (picryl chloride delayed hypersensitivity, ear swelling, oral); format: in vivo, male BALB/C mice; details: for Increase relative to control group (ear swelling) / Increase of swelling (× 10^-4): 7 days; for Increase of swelling (× 10^-4): 24 hours after challenge; for effect on the delayed hypersensitivity response (in words): oral, Table 8 doses
Method: (5) Effect on a cell-mediated response
Ten male BALB/C mice in each group, weighing in 20-25 g, were used. Mice were immunized by applying the skin of the clipped abdomen with 0.1 ml of 7% picryl chloride in absolute alcohol on day 0, and challenge was with 0.02 ml of 1% picryl chloride in olive oil applied to the ear on day 7. The ear was measured again 24 hours later by a dial thickness gauge. A solution of the compound in water was orally administered at the dose shown in Table 8 below daily for seven consecutive days starting with day 1.

[5] = 3 mg/kg/day i.v., cell count 1 × 10^5

## C[S+](C)CCC1CCCCO1 (centres unmarked) [Compound 58]
[1]
  LD50: 80 mg/kg
Meth-A cells; 2.0 mg/kg/day i.v.
  Inhibition (Meth-A tumor growth): 49.2%

## C[S+](C)CC1CCCCO1 (centres unmarked) [Compound 50, methylene(tetrahydro-2-pyranyl)dimethylsulfonium p-toluenesulfonate]
Sarcoma 180 cells; 3.0 mg/kg/day i.v.
  Inhibition (sarcoma 180 growth): 73.3%
[1]
  LD50: 135 mg/kg

## CCCC[S+](C)CC1CCCO1 (centres unmarked) [Compound 12]
[1]
  LD50: 90 mg/kg
[2]; [5]
  Inhibition (fibrosarcoma growth): 44.3%

## C[S+](C)CCCC1CCCO1 (centres unmarked) [Compound 46]
[1]
  LD50: 13.2 mg/kg
Meth-A cells; 0.2 mg/kg/day i.v.
  Inhibition (Meth-A tumor growth): 58.1%

## C[S+](C)CC1CCCO1 (centres unmarked) [Compound 1, methylene(tetrahydro-2-furanyl)dimethylsulfonium p-toluenesulfonate]
Sarcoma 180 cells; 0.8 mg/kg/day i.v.
  Inhibition (sarcoma 180 growth): 66.4%
[3]; 2.5 mg/kg/day i.p.
  Increase (hemolytic plaque forming cells vs saline control): 52.6%
  Cell count/spleen (hemolytic plaque forming cells): 322 ± 75.2
[3]; 10 mg/kg/day i.p.
  Increase (hemolytic plaque forming cells vs saline control): 35.1%
  Cell count/spleen (hemolytic plaque forming cells): 285 ± 113.5
[3]; 40 mg/kg/day i.p.
  Increase (hemolytic plaque forming cells vs saline control): 85.8%
  Cell count/spleen (hemolytic plaque forming cells): 392 ± 91.4
[3]; at the doses of 2.5 mg/kg and 40 mg/kg, i.p.
  increase in the number of hemolytic plaque forming cells (in words): significant increases
[4]; 20 mg/kg/day oral
  Increase relative to control group (ear swelling): -3.4%
  Increase of swelling (× 10^-4): 34.2 ± 6.0 × 10^-4
[4]; 100 mg/kg/day oral
  Increase relative to control group (ear swelling): 43.5%
  Increase of swelling (× 10^-4): 50.8 ± 13.4 × 10^-4
[4]; 500 mg/kg/day oral
  Increase relative to control group (ear swelling): 11.0%
  Increase of swelling (× 10^-4): 39.3 ± 9.8 × 10^-4
[4]
  effect on the delayed hypersensitivity response (in words): augment the delayed hypersensitivity response
[1]
  LD50: 130 mg/kg
Meth-A cells; 0.8 mg/kg/day i.v.
  Inhibition (Meth-A tumor growth): 39.9%
Meth-A cells; 4.0 mg/kg/day i.v.
  Inhibition (Meth-A tumor growth): 63.9%
[2]; 10 mg/kg/day i.v., cell count 5 × 10^4
  Inhibition (fibrosarcoma growth): 71.5%

## C[S+](CCOC(=O)c1ccccc1)CC1CCCO1 (centres unmarked) [Compound 27]
Sarcoma 180 cells; 0.4 mg/kg/day i.v.
  Inhibition (sarcoma 180 growth): 75.7%
[1]
  LD50: 94 mg/kg

## C[S+](C)CCC1CCCO1 (centres unmarked) [Compound 29, ethylene(tetrahydro-2-furanyl)dimethylsulfonium p-toluenesulfonate]
[4]; 20 mg/kg/day oral
  Increase relative to control group (ear swelling): 26.0%
  Increase of swelling (× 10^-4): 44.8 ± 9.5 × 10^-4
[4]; 100 mg/kg/day oral
  Increase relative to control group (ear swelling): 35.3%
  Increase of swelling (× 10^-4): 47.9 ± 13.2 × 10^-4
[4]; 500 mg/kg/day oral
  Increase relative to control group (ear swelling): -11.6%
  Increase of swelling (× 10^-4): 31.3 ± 13.5 × 10^-4
[4]
  effect on the delayed hypersensitivity response (in words): augment the delayed hypersensitivity response
[1]
  LD50: 131 mg/kg
Meth-A cells; 0.4 mg/kg/day i.v.
  Inhibition (Meth-A tumor growth): 60.7%
Meth-A cells; 2.0 mg/kg/day i.v.
  Inhibition (Meth-A tumor growth): 69.8%
Meth-A cells; 10.0 mg/kg/day i.v.
  Inhibition (Meth-A tumor growth): 39.6%
[2]; [5]
  Inhibition (fibrosarcoma growth): 66.7%

From patent publication US4340543A, “Sulfonium compounds” (Taiho Pharmaceutical Company Limited, priority 1980, dated 1982)
